# Experimental data from patent US20020076693A1, “Novel cell surface receptor for HIV retroviruses, therapeutic and diagnostic uses” (priority 1997, published 2002).
# Test system: CD4^+ CEM cells
# Test: Binding of 125I-labeled gp120 to CEM cells
# Set-up: species or system human
# Procedure: A. The binding of ^125I-labeled gp120 to CEM cells. […] The cells were then washed as described in “Materials and Methods” and processed for analysis of the bound gp120.
# Recombinant gp120 (Neosystem, Strasbourg, France) was radioiodinated with the Bolton-Hunter reagent (New England Nuclear-Du Pont, Boston, Mass.) according to the technique described by the manufacturer. To study the binding of gp120 to the CD4 receptor, CEM cells (5×10^6) which express high levels of CD4 were incubated in the culture medium with ^125I-labeled gp120 (50 ng; 10 Ci/mg) at 37° C. for 1 hour. Cells were then washed twice in PBS (5 ml) and cytoplasmic extracts were prepared by disruption of cell pellets in buffer E ([…]). Aliquots ([…]; corresponding to material from 10^6 cells) were diluted in two-fold concentrated electrophoresis buffer and were analyzed by SDS/PAGE. […] The ^125I-labeled gp120 band was also quantitated in a Phosphorimager (Molecular Dynamics, Sunnyvale, Calif.).
substance,measurement,setting,value
5[Kψ(CH2N)PR]-TASP,binding of 125I-labeled gp120 to CEM cells,20 mM of TASP,not affected
same,binding of 125I-labeled gp120 to CEM cells,"higher concentrations of TASP (40, 80 μM)",slight inhibition
